The data set has as its target IRF4. The conditions noted are these: ASO.

Several values for one entry are separate records, joined by “and”; a condition that tells them apart may be missing. Equal values may be shown once. After the bases stand the sugars from the 5' end (letter, count) and the backbone: PS all phosphorothioate, else s phosphorothioate and o phosphodiester by linkage. Methylation of C is not given here. e = 2'-O-(2-methoxyethyl) (MOE); k = constrained ethyl (cEt); d = 2'-deoxy (DNA)

As to AGCCTTCACGCACCAT (sugars k3 d10 k3, PS), the target mRNA inhibition (SK-MEL-28, 4 µM) was 30%.
As to GACGACTTAAGCTAAA (sugars k3 d10 k3, PS), the target mRNA inhibition (SK-MEL-28, 4 µM) stood at 62%.
Consider CGACAAGTGGCGCAGA (sugars k3 d10 k3, PS), for which the target mRNA inhibition (MM.1R, 1 µM) came to 2%.
As for GTTCAAGACAAGGGTT (sugars k3 d10 k3, PS), the target mRNA inhibition (MM.1R, 1 µM) is 15%.
Same read-out and setting: for “GCAGTGATGTCAGGTT (sugars kkkdddddddddkeke, PS)” the value was 56%.
Regarding ACTGTAAGGGCTGCTC (sugars k3 d10 k3, PS), the target mRNA inhibition (SK-MEL-28, 4 µM) was found to be 69%.
For the sequence CCTTTAGTGTCGCCAT (sugars k3 d10 k3, PS), the target mRNA inhibition (SK-MEL-28, 4 µM) came to 58%.
As to “GCATTTTATCATCCGA (sugars kkkddddddddkekek, PS)”, where the note is “MM.1R, 1 µM”, the target mRNA inhibition amounted to 45%.
Consider TCCAGAAAATTCAGCT (sugars k3 d10 k3, PS), for which the target mRNA inhibition (SK-MEL-28, 4 µM) amounted to 48%.
Turning to AAGGAACAAGTGTATC (sugars k3 d10 k3, PS), the target mRNA inhibition (MM.1R, 1 µM) was found to be 13%.
With “TGTGCTTGCCAAGCCT (sugars kkdddddddddkekek, PS)”, the target mRNA inhibition (MM.1R, 1 µM) was 2% and 18%.
For the sequence CTGGATTGATGTGATA (sugars k3 d10 k3, PS), the target mRNA inhibition (SK-MEL-28, 4 µM) came out at 43%.
In the case of CCTGAAGCTTAGTTAT (sugars k3 d10 k3, PS), the target mRNA inhibition (SK-MEL-28, 4 µM) is 35%.
As for CCACGAGGCCCCGGAG (sugars k3 d10 k3, PS), under “MM.1R, 1 µM”, the target mRNA inhibition is 4%.
Take “GGAAGTTTACACTGGA (sugars kkdddddddddekeke, PS)”: the target mRNA inhibition by setting is: (MM.1R, 0.074 µM) 4%; (MM.1R, 0.222 µM) 15%; (MM.1R, 0.666 µM) 40%; (MM.1R, 1 µM) 64%; (MM.1R, 2 µM) 64%.
Regarding “CAGTTGTAAATGAGTC (sugars kkdddddddddkdkdk, PS)”, the target mRNA inhibition (MM.1R, 1 µM) stood at 46%.
With AAAGACCCCAGCTATG (sugars k3 d10 k3, PS), the target mRNA inhibition (SK-MEL-28, 4 µM) was 23%.
Same read-out and setting: for TCATGATGTATACCAA (sugars k3 d10 k3, PS) the value was 65%.
Take GGTGCTCCTAAATCAC (sugars k3 d10 k3, PS): where the note is “MM.1R, 1 µM”, the target mRNA inhibition is -1%.
Regarding GCGGACGCACGGAGAG (sugars k3 d10 k3, PS), where the note is “MM.1R, 1 µM”, the target mRNA inhibition is -9%.
Take TTGGAAAGACAAGTGC (sugars k3 d10 k3, PS): under “SK-MEL-28, 4 µM”, the target mRNA inhibition came to 15%.
Still for that read-out and setting: for AACTTATAGCACTCTC (sugars k3 d10 k3, PS) the value was 28%.
For the sequence GTGCTTGCCAAGCCTA (sugars k3 d10 k3, PS), the target mRNA inhibition (MM.1R, 1 µM) was 27% and 36%.
Take GTAAACTGAAAGACCC (sugars k3 d10 k3, PS): where the note is “SK-MEL-28, 4 µM”, the target mRNA inhibition is 35%.
Take TCACATGATAAGGCAC (sugars k3 d10 k3, PS): for the setting “MM.1R, 1 µM”, the target mRNA inhibition was 19%.
With ATAGAGCCAGAGCAGT (sugars k3 d10 k3, PS), the target mRNA inhibition (SK-MEL-28, 4 µM) was determined as 66%.
Still for that read-out and setting: for GAGCACCAGCCATCGG (sugars k3 d10 k3, PS) the value was 23%; for AACAATACTGTAAGGG (sugars k3 d10 k3, PS), 51%.
Regarding CCCACGCGGGAGGCTC (sugars k3 d10 k3, PS), the target mRNA inhibition (MM.1R, 1 µM) was -23%.
Turning to “CAGTGATGTCAGGTTT (sugars kddddddddddkekek, PS)”, the target mRNA inhibition (MM.1R, 1 µM) is 46%.
In the case of GAAGCACTGGCATCGA (sugars k3 d10 k3, PS), for the setting “SK-MEL-28, 4 µM”, the target mRNA inhibition is 44%.
Take GAACAGTAACTTGACT (sugars k3 d10 k3, PS): the target mRNA inhibition (SK-MEL-28, 4 µM) was determined as 4%.
As for CAGAATGGCGAGTTGG (sugars k3 d10 k3, PS), under “MM.1R, 1 µM”, the target mRNA inhibition was determined as 31%.
Turning to TGGCACGAGGAAGCAT (sugars k3 d10 k3, PS), the target mRNA inhibition (SK-MEL-28, 4 µM) came to 46%.
Same read-out and setting: for TAGGTATACTTAAGCA (sugars k3 d10 k3, PS) the value was 79%; for CAATGATGGCAGTCTA (sugars k3 d10 k3, PS), 40%.
Take GTATTTATAACCGGTA (sugars k3 d10 k3, PS): the target mRNA inhibition is, setting by setting: (MM.1R, 0.0625 µM) -7% and 4% and -9%; (MM.1R, 0.074 µM) -19%; (MM.1R, 0.222 µM) 4%; (MM.1R, 0.25 µM) 8% and 9% and 21%; (MM.1R, 0.666 µM) 7%; (MM.1R, 1 µM) 34% and 36% and 37%. Also, the target mRNA inhibition (MM.1R, 2 µM) was found to be 33%; the target mRNA inhibition (MM.1R, 4 µM) is 77% and 74% and 75%; the target mRNA inhibition (SK-MEL-28, 4 µM) is 67%.
For CGTAAACTGAAAGACC (sugars k3 d10 k3, PS), the target mRNA inhibition (SK-MEL-28, 4 µM) was determined as 48%.
For the sequence ATGTATACATCACTGC (sugars k3 d10 k3, PS), under “SK-MEL-28, 4 µM”, the target mRNA inhibition is 67%.
For “TTATGTTAGCCAATTC (sugars kkdddddddddkekek, PS)”, the target mRNA inhibition (MM.1R, 1 µM) is 11% and 19%.
As to TTTATATATGACGACT (sugars k3 d10 k3, PS), the target mRNA inhibition (SK-MEL-28, 4 µM) worked out at 39%.
For “ACCTCAGTTTGTGAAG (sugars kddddddddddkekek, PS)”, the target mRNA inhibition (MM.1R, 1 µM) was determined as 18%.
Same read-out and setting: for GCGCGGAGGGCAGGCG (sugars k3 d10 k3, PS) the value was -32%.
Consider CCTGGCGGAGCATCAA (sugars k3 d10 k3, PS), for which the target mRNA inhibition (SK-MEL-28, 4 µM) stood at 42%.
Same read-out and setting: for GTTGTAAATGAGTCGG (sugars k3 d10 k3, PS) the value was 87% and 81%.
The same measure, in the same setting: for CATAAAAGGTTCCTGT (sugars k3 d10 k3, PS) the value was 9%.
GCAGGGACCGCGCCAG (sugars k3 d10 k3, PS): the target mRNA inhibition (MM.1R, 1 µM) stood at 10%.
The same measure, in the same setting: for “TTGGTTGGCTGGTCTT (sugars kkdddddddddkdkdk, PS)” the value was 55%; for GGCAGTTGTGCCGTCT (sugars k3 d10 k3, PS), -17%.
Consider GACCACAGTGAAGTCG (sugars k3 d10 k3, PS), for which, for the setting “SK-MEL-28, 4 µM”, the target mRNA inhibition was determined as 14%.
Same read-out and setting: for GTGAAGCATCCTTTCC (sugars k3 d10 k3, PS) the value was 63%.
Turning to “TACTGCTTGAGGTTTT (sugars k2 d9 e3 k2, PS)”, for the setting “MM.1R, 1 µM”, the target mRNA inhibition came out at 10%.
As to TTTATGGACCACGCAG (sugars k3 d10 k3, PS), the target mRNA inhibition (SK-MEL-28, 4 µM) is 38%.
As for AGGCACCTTCGCGGCC (sugars k3 d10 k3, PS), the target mRNA inhibition (SK-MEL-28, 4 µM) amounted to 18%.
With TCTATAAGATGTATAC (sugars k3 d10 k3, PS), under “SK-MEL-28, 4 µM”, the target mRNA inhibition was 26%.
As to ACTAATTCCATAGAGC (sugars k3 d10 k3, PS), the target mRNA inhibition runs as follows: (MM.1R, 0.0625 µM) -18%; (MM.1R, 0.074 µM) -12%; (MM.1R, 0.222 µM) -13%; (MM.1R, 0.25 µM) -12%; (MM.1R, 0.666 µM) -10%; (MM.1R, 1 µM) -17%. Besides, the target mRNA inhibition reads like this: (MM.1R, 2 µM) -4%; (MM.1R, 4 µM) -6%; (SK-MEL-28, 4 µM) 79%.
For the sequence GTTTTAAGAGGCGACT (sugars k3 d10 k3, PS), under “SK-MEL-28, 4 µM”, the target mRNA inhibition was 33%.
For GAAGTACGAGCACATG (sugars k3 d10 k3, PS), the target mRNA inhibition (MM.1R, 1 µM) is 18%.
For GGAGACACATACATTT (sugars k3 d10 k3, PS), the target mRNA inhibition (SK-MEL-28, 4 µM) was determined as 22%.
Still for that read-out and setting: for CAGATAGTTAAGTACT (sugars k3 d10 k3, PS) the value was 44%.
As to GGGTAGAGCAGCTCCC (sugars k3 d10 k3, PS), the target mRNA inhibition (MM.1R, 1 µM) was -16%.
With AAGTCTACAGCCCCAG (sugars k3 d10 k3, PS), the target mRNA inhibition (MM.1R, 1 µM) is -5%.
As for CTGCATGAGGGTGACA (sugars k3 d10 k3, PS), the target mRNA inhibition (SK-MEL-28, 4 µM) turned out to be 19%.
In the case of CGCTCATGCCGAACTC (sugars k3 d10 k3, PS), the target mRNA inhibition (SK-MEL-28, 4 µM) turned out to be 11%.
Regarding TCTCAAGGAGATCCAC (sugars k3 d10 k3, PS), the target mRNA inhibition (SK-MEL-28, 4 µM) turned out to be 1%.
With CCAGAACTAATGTCCC (sugars k3 d10 k3, PS), the target mRNA inhibition (MM.1R, 1 µM) worked out at 6%.
For the sequence GTTGACACAGGAGCCG (sugars k3 d10 k3, PS), the target mRNA inhibition (SK-MEL-28, 4 µM) worked out at 53%.
The same measure, in the same setting: for CTGGTTCGCGCTCCGG (sugars k3 d10 k3, PS) the value was 7%; for GCTATCAGGATCTCAA (sugars k3 d10 k3, PS), 38%.
For the sequence TGCCAGTTCCTTGTGA (sugars k3 d10 k3, PS), under “MM.1R, 1 µM”, the target mRNA inhibition was -2%.
On to CTAAAACTGCGCTCTC (sugars k3 d10 k3, PS), for which, under “SK-MEL-28, 4 µM”, the target mRNA inhibition stood at 24%.
As to GTAAGGGCTGCTCATT (sugars k3 d10 k3, PS), for the setting “SK-MEL-28, 4 µM”, the target mRNA inhibition was found to be 52%.
For GAGCCTGGGACTCAGG (sugars k3 d10 k3, PS), the target mRNA inhibition (MM.1R, 0.074 µM) was determined as 3%; the target mRNA inhibition (MM.1R, 0.222 µM) was determined as 4%; the target mRNA inhibition (MM.1R, 0.666 µM) was -3%; the target mRNA inhibition (MM.1R, 2 µM) stood at 7%; the target mRNA inhibition (SK-MEL-28, 0.185 µM) was 7%; the target mRNA inhibition (SK-MEL-28, 4 µM) turned out to be 49%. Besides, the target mRNA inhibition (SK-MEL-28, 5 µM) is 58% and the target mRNA inhibition (SK-MEL-28, 15 µM) is 87%.
For CAGACATACCTACAAG (sugars k3 d10 k3, PS), the target mRNA inhibition (SK-MEL-28, 4 µM) was 44%.
TACGAGCACATGTCAA (sugars k3 d10 k3, PS): for the setting “SK-MEL-28, 4 µM”, the target mRNA inhibition is 36%.
Take TTAATCTGTCTAAACC (sugars k3 d10 k3, PS): the target mRNA inhibition (SK-MEL-28, 4 µM) is 16%.
Still for that read-out and setting: for TAAAAGAGGTGCTAGG (sugars k3 d10 k3, PS) the value was 27%.
With “AGTTGTAAATGAGTCG (sugars kkdddddddddkekek, PS)”, the target mRNA inhibition stood at 10% (MM.1R, 0.074 µM); 31% (MM.1R, 0.222 µM); 47% (MM.1R, 0.666 µM); 56% (MM.1R, 1 µM); 66% (MM.1R, 2 µM).
Turning to CTCCAGCTTCGGTCGA (sugars k3 d10 k3, PS), where the note is “MM.1R, 1 µM”, the target mRNA inhibition was determined as 9%.
On to “AAGCAGTGATGTCAGG (sugars kkdddddddddkdkdk, PS)”, for which the target mRNA inhibition (MM.1R, 1 µM) is 60% and 61%.
Regarding CAGCATAGCATTATCT (sugars k3 d10 k3, PS), the target mRNA inhibition (SK-MEL-28, 4 µM) was -51%.

The record behind these values is the OligoGym collection.
